Test results as given in ChEMBL document CHEMBL3861965, “Stereochemical Assignment and Biological Evaluation of BE-14106 Unveils the Importance of One Acetate Unit for the Antifungal Activity of Polyene Macrolactams” (J Nat Prod, 2016).
In brackets after ≈: the same amount, converted by molar mass. Activity calls are given as the source filed them. The calls are words filed in the database; no cut-off is given here.

Assays:
Assay type in all cases: functional
[1] = system: Schizosaccharomyces pombe; assay: Antifungal activity against wild type fission yeast JY1 assessed as accumulation of cell wall material at 0.25 uM after 2 hrs by cfw-dye based fluorescence microscopic analysis
[2] = Antifungal activity against fission yeast harboring deltaerg5 mutant after 24 hrs by turbidity assay; conditions: Schizosaccharomyces pombe
[3] = Antifungal activity against fission yeast harboring deltaerg31/deltaerg32 mutant after 24 hrs by turbidity assay; conditions: Schizosaccharomyces pombe
[4] = Antifungal activity against fission yeast harboring deltasts1/erg4 mutant after 24 hrs by turbidity assay; conditions: Schizosaccharomyces pombe
[5] = Antifungal activity against fission yeast harboring deltaerg2 mutant after 24 hrs by turbidity assay; conditions: Schizosaccharomyces pombe
[6] = Antifungal activity against wild type fission yeast JY1 after 24 hrs by turbidity assay; conditions: Schizosaccharomyces pombe
[7] = Antifungal activity against wild type fission yeast JY1 after 24 hrs by XTT assay; conditions: Schizosaccharomyces pombe

MIC [7] [µM]	Structure (SMILES)	Activity [1]	MIC [2] [µM]	MIC [3] [µM]	MIC [4] [µM]	MIC [5] [µM]	MIC [6] [µM]
	CCC/C=C/C=C/C[C@@H]1C/C=C/C=C(C)/C=C/C=C\[C@@H](O)[C@@H](O)/C=C(C)/C=C/C=C/C(=O)N1	Active	0.13 to 0.28 (≈ 0.0585 to 0.126 µg/mL)	0.13 to 0.28 (≈ 0.0585 to 0.126 µg/mL)	0.13 to 0.28 (≈ 0.0585 to 0.126 µg/mL)	0.13 to 0.28 (≈ 0.0585 to 0.126 µg/mL)	0.13 to 0.28 (≈ 0.0585 to 0.126 µg/mL)
0.27 (≈ 0.25 µg/mL)	C[C@@H]1[C@H](O)[C@@H](C)/C=C/C=C/C=C/C=C/C=C/C=C/C=C/[C@H](O[C@@H]2O[C@H](C)[C@@H](O)[C@H](N)[C@@H]2O)C[C@@H]2O[C@](O)(C[C@@H](O)C[C@@H](O)[C@H](O)CC[C@@H](O)C[C@@H](O)CC(=O)O[C@H]1C)C[C@H](O)[C@H]2C(=O)O						
